Data on 22 molecules can be found in patent US9249148B2, “Tris(hetero)arylpyrazoles and use thereof” (AICURIS GMBH & CO. KG, priority 2012, dated 2016).

What all share (assay type): cell-based
Assay [1] relates to HIV-1NL4-3 wildtype. As to the kind of experiment: Luminescence Reduction Assay, luciferase reporter virus in MT4 cells. The note with it: Human immunodeficiency virus 1, MT4, read-out: EC50 (μM) MT4 cells HIV-1NL4-3 wildtype 2% FBS. The source says: (§1) For this assay, HIV-1NL4-3 reporter viruses are used which carry the luciferase164 gene (lu164) in place of the nef gene. The viruses are generated by transfection of 293T cells with the corresponding proviral pNL4-3 plasmid (Lipofectamine Reagent, Invitrogen, Karlsruhe, Germany). Starting from the proviral plasmid DNA, viruses with defined resistance mutations (single or combined) are produced in the reverse transcriptase gene using the “QuikChange II XL Site-Directed Mutagenesis Kit” (Stratagene, Cedar Creek, Tex., USA). Resistance mutations include, among others: L74V, A98G, A98S, L100I, K101E, K103N, V106A, V106I, V106M, V108I, V108A, E138K, V179I, V179D, V179E, Y181C, Y181I, Y188L, G190A, G1905, H221Y, P225H, F227C, F227L, F227V, M230I, M230L, L234I, P236L, N348I, T369A, T369I, T369V. MT4 cells infected with these reporter viruses (NIH AIDS Research and Reference Reagent Program) secrete luciferase into the medium, which enables the luminometric quantification of the virus replication.
(§2) For starting a 96-well MTP, 3 million MT4 cells are pelleted, suspended in 1 ml RPMI 1640 medium without phenol red (Invitrogen, Karlsruhe, Germany)/10% FBS/2 mM L-glutamine/1% Pen/Strep (Invitrogen, Karlsruhe, Germany), and incubated for 2 hours at 37° C. with a suitable quantity of the relevant HIV-1NL4-3 reporter virus (pellet infection). Non-adsorbed viruses are then washed out, and the infected cells are pelleted again and suspended in 8 ml RPMI 1640 medium without phenol red/2% or 10% FBS/2 mM L-glutamine/1% Pen/Strep. From this, 90 μl per well is pipetted into a white 96-well MTP to 10 μl of test substance at a suitable level of dilution. In order to avoid edge effects, the edge wells of the MTP are not used for substance dilutions. The second vertical row of the MTP contains only infected cells (virus control) and the eleventh vertical row only non-infected cells (cell control), each in RPMI 1640 medium without phenol red/2% or 10% FBS/2 mM L-glutamine/1% Pen/Strep. The remaining wells of the MTP contain the compounds in accordance with the invention in various concentrations, starting from the third vertical row, from which the test substances are diluted in 3-step sequences up to the tenth vertical row by a factor of 3^7. The test substances are dissolved in DMSO; the final DMSO concentration in the test formulation is 1%.
On the technique in general: Reporter assays use an easily measured gene product as a stand-in for the process of interest.

Assay [2] concerns HIV-1NL4-3 K103N-Y181C. As to the kind of experiment: Luminescence Reduction Assay, luciferase reporter virus with resistance mutations in MT4 cells. The note with it: Human immunodeficiency virus 1, MT4, read-out: EC50 (μM) MT4 cells HIV-1NL4-3 K103N-Y181C 2% FBS.
Description: as §1, §2

Assay [3] deals with HIV-1LAI wildtype. As to the kind of experiment: alamarBlue Viability Assay with HIV-1LAI-infected MT4 cells. The note with it: Human immunodeficiency virus 1, 10% FBS. On the procedure: For starting a 96-well MTP, 3 million PBLs are pelleted, suspended in 1 ml RPMI 1640 medium/10% FBS/2 mM L-glutamine/1% Pen/Strep and incubated for 2 hours at 37° C. with a suitable quantity of the relevant HIV-1LAI (NIH AIDS Research & Reference Reagent Program, Germantown, USA) (pellet infection). Non-adsorbed viruses are then washed out, and the infected cells pelleted again and suspended in 18 ml RPMI 1640 medium/10% FBS/2 mM L-glutamine/1% Pen/Strep/Interleukin-2 (40 U/ml). From this, 180 μl per well is pipetted into a 96-well MTP to 20 μl of test substance at a suitable level of dilution. Alternatively, the HIV is added after preparation of the substance dilutes in the MTP together with the cells, and is not washed out (supernatant infection). In order to avoid edge effects, the edge wells of the MTP are not used for substance dilutions. The second vertical row of the MTP contains only infected cells (virus control) and the eleventh vertical row only non-infected cells (cell control), each in RPMI 1640 medium/10% FBS/2 mM L-glutamine/1% Pen/Strep/Interleukin-2 (40 U/ml). The remaining wells of the MTP contain the compounds in accordance with the invention in various concentrations, starting from the third vertical row, from which the test substances are diluted in 3-step sequences up to the tenth vertical row by a factor of 3^7. The test substances are dissolved in DMSO; the final DMSO concentration in the test preparation is 1%. The test samples are incubated for 5 days at 37° C./5% CO2. After 5 to 7 days, 50 μl of cell-free supernatant is removed from each well to determine its p24 content using p24 ELISA (HIV-1 p24CA Antigen Capture Assay Kit, NCI-Frederick Cancer Research and Development Center, Frederick, USA). From the resulting values of the photometric analysis (450/620 nm), the EC50 values of the test substances are determined from the resulting dose-response curves using the Prism4 software (GraphPad, San Diego, Calif.) as the concentration of treated infected cells, where the p24 quantity is 50% of the untreated infected cells.
Alternatively, MT4 cells are used in place of PBLs for testing the test substances. HIV-1LAI-infected MT4 cells (MOI 0.01, supernatant infection) are incubated in accordance with the procedure described above in RPMI 1640 medium using 2% or 10% FKS/2 mM L-glutamine/1% Pen/Strep in the presence of the test substances for 5 days at 37° C./5% CO2 (10 μl diluted substance and 90 μl cells/virus per well). 10 μl alamarBlue (Invitrogen, Karlsruhe, Germany) is then added per well and the MTPs are incubated for 3 hours at 37° C. before fluorimetric evaluation is performed (544/590 nm). Using quattroWorkflow software (Quattroresearch, Martinsried, Germany), the EC50 values of the test substances are determined from the resulting dose-response curves as the concentration of treated infected cells in which the fluorescence is 50% of that of the untreated, non-infected cells.
(Alamar Blue is a resazurin reagent that responds to reducing activity.)

In general, EC50 refers to the concentration needed to bring the measured effect to its halfway point. In the case of `N#Cc1cc(-n2nc(-c3nccc4c3CNC4=O)cc2-c2cc(F)cc(Cl)c2)ccc1F` [Example 24], the results for the EC50 in assay [1], in assay [2] and in assay [3] were 0.0002 µM, 0.0003 µM and 0.0006 µM, respectively.

For `COc1cc(OC(F)(F)F)cc(-c2cc(-c3nccc4c3CNC4=O)nn2-c2ccc(F)c(Cl)c2)c1` [Example 27], the EC50 is 0.0384 µM in assay [1], 0.0219 µM in assay [2] and 0.148 µM in assay [3].

With `O=C1NCc2c1ccnc2-c1cc(-c2cc(Br)cc(OC(F)(F)F)c2)n(-c2cccnc2)n1` [Example 13, 4-{5-[3-bromo-5-(trifluoromethoxy)phenyl]-1-(pyridine-3-yl)-1H-pyrazole-3-yl}-2,3-dihydro-1H-pyrrolo[3,4-c]pyridine-1-one], the EC50 in assay [1] was determined as 0.0011 µM; in assay [2] it was 0.0025 µM; in assay [3], 0.0086 µM.

`O=C1NCc2c1cccc2-c1cc(-c2cccc(Cl)c2)n(-c2cccc(C(F)(F)F)c2)n1` [Example 38]: the results for the EC50 in assay [1], in assay [2] and in assay [3] were 0.18 µM, 1.18 µM and 0.948 µM, respectively.

Consider `O=C1NCc2c1ccnc2-c1cc(-c2cc(Cl)cc(OC(F)(F)F)c2)n(-c2cccnc2)n1` [Example 10, 4-{5-[3-chloro-5-(trifluoromethoxy)phenyl]-1-(pyridine-3-yl)-1H-pyrazole-3-yl}-2,3-dihydro-1H-pyrrolo[3,4-c]pyridine-1-one], for which the EC50 was 0.0012 µM in assay [1], 0.0027 µM in assay [2] and 0.008 µM in assay [3].

`O=C1NCc2c1cccc2-c1cc(-c2cc(F)cc(Cl)c2)n(-c2cccnc2)n1` [Example 4, 4-[5-(3-chloro-5-fluorophenyl)-1-(pyridine-3-yl)-1H-pyrazole-3-yl]-2,3-dihydro-1H-isoindole-1-one]: the EC50 in assay [1] stood at 0.0055 µM; in assay [2], 0.042 µM; in assay [3], 0.0155 µM.

For the molecule `O=C1NCc2c1cccc2-c1cc(-c2cc(Cl)cc(OC(F)(F)F)c2)n(-c2cccnc2)n1` [Example 11, 4-{5-[3-chloro-5-(trifluoromethoxy)phenyl]-1-(pyridine-3-yl)-1H-pyrazole-3-yl}-2,3-dihydro-1H-isoindole-1-one], the EC50 in assay [1] was 0.0091 µM; in assay [2], 0.024 µM; in assay [3], 0.0663 µM.

Take `O=C1NCc2c1cccc2-c1cc(-c2cncc(Cl)c2)n(-c2ccc(F)c(Cl)c2)n1` [Example 32]: the figures for the EC50 in assay [1], in assay [2] and in assay [3] were 0.0069 µM, 0.0383 µM and 0.0273 µM, respectively.

On to `O=C1NCc2c1ccnc2-c1cc(-c2ccc(F)c(OC(F)(F)F)c2)n(-c2cccc(Cl)c2)n1` [Example 43], for which the EC50 in assay [1] was found to be 0.0568 µM; in assay [2], 0.2 µM; in assay [3], 0.674 µM.

Take `O=C1NCc2c1ccnc2-c1cc(-c2cc(F)cc(Cl)c2)n(-c2ccc(F)c(Cl)c2)n1` [Example 1, 4-[1-(3-chloro-4-fluorophenyl)-5-(3-chloro-5-fluorophenyl)-1H-pyrazole-3-yl]-2,3-dihydro-1H-pyrrolo[3,4-c]pyridine-1-one]: the results for the EC50 in assay [1], in assay [2] and in assay [3] were 0.0015 µM, 0.004 µM and 0.0097 µM, respectively.

For the molecule `O=C1NCc2c1ccnc2-c1cc(-c2cncc(Cl)c2)n(-c2ccc(F)c(Cl)c2)n1` [Example 31], the EC50 came to 0.0008 µM in assay [1], 0.0024 µM in assay [2] and 0.0041 µM in assay [3].

For the molecule `O=C1NCc2c1ccnc2-c1cc(-c2cc(F)cc(OC(F)(F)F)c2)n(-c2ccc(F)c(Cl)c2)n1` [Example 5, 4-{1-(3-chloro-4-fluorophenyl)-5-[3-fluoro-5-(trifluoromethoxy)phenyl]-1H-pyrazole-3-yl}-2,3-dihydro-1H-pyrrolo[3,4-c]pyridine-1-one], the EC50 in assay [1] was determined as 0.011 µM; in assay [2], 0.0117 µM; in assay [3] it was 0.15 µM.

With `O=C1NCc2c1ccnc2-c1cc(-c2cc(F)cc(OC(F)F)c2)n(-c2ccc(F)c(Cl)c2)n1` [Example 15, 4-{1-(3-chloro-4-fluorophenyl)-5-[3-(difluoromethoxy)-5-fluorophenyl]-1H-pyrazole-3-yl}-2,3-dihydro-1H-pyrrolo[3,4-c]pyridine-1-one], the EC50 turned out to be 0.0044 µM in assay [1], 0.0085 µM in assay [2] and 0.0171 µM in assay [3].

For the molecule `O=C1NCc2c1cccc2-c1cc(-c2cc(F)cc(Cl)c2)n(-c2cccc(Cl)c2)n1` [Example 41], the EC50 was 0.0112 µM in assay [1], 0.152 µM in assay [2] and 0.0807 µM in assay [3].

Take `O=C1NCc2c1cccc2-c1cc(-c2ccc(F)c(OC(F)(F)F)c2)n(-c2cccc(Cl)c2)n1` [Example 44]: the EC50 in assay [1] is 0.533 µM; in assay [2] it was 0.458 µM; in assay [3], 1.91 µM.

As for `N#Cc1cccc(-c2cc(-c3cccc4c3CNC4=O)nn2-c2ccc(F)cc2)c1` [Example 36], the EC50 in assay [1] was 0.0848 µM; in assay [2] it was 0.0675 µM; in assay [3] it was 0.449 µM.

Turning to `COc1cccc(-n2nc(-c3cccc4c3CNC4=O)cc2-c2ccnc(Cl)c2)c1` [Example 40], the EC50 was determined as 0.0517 µM in assay [1], 0.499 µM in assay [2] and 0.222 µM in assay [3].

`O=C1NCc2c1ccnc2-c1cc(-c2cccc(F)c2F)n(-c2ccc(F)c(Cl)c2)n1` [Example 33]: the EC50 in assay [1] came to 0.0227 µM; in assay [2], 0.061 µM; in assay [3] it was 0.0641 µM.

As for `Cc1cc(F)cc(-c2cc(-c3nccc4c3CNC4=O)nn2-c2ccc(F)c(Cl)c2)c1` [Example 22], the EC50 in assay [1] came out at 0.0009 µM; in assay [2] it was 0.0077 µM; in assay [3], 0.0245 µM.

Consider `Cc1cc(F)cc(-c2cc(-c3cccc4c3CNC4=O)nn2-c2ccc(F)c(Cl)c2)c1` [Example 23], for which the values for the EC50 in assay [1], in assay [2] and in assay [3] were 0.015 µM, 0.0565 µM and 0.0983 µM, respectively.

Turning to `COc1cccc(-n2nc(-c3nccc4c3CNC4=O)cc2-c2ccnc(Cl)c2)c1` [Example 39], the EC50 in assay [1] was found to be 0.0075 µM; in assay [2], 0.0692 µM; in assay [3] it was 0.0486 µM.

For the molecule `O=C1NCc2c1ccnc2-c1cc(-c2cc(Cl)cc(C(F)(F)F)c2)n(-c2ccc(F)c(Cl)c2)n1` [Example 30], the figures for the EC50 in assay [1], in assay [2] and in assay [3] were 0.0075 µM, 0.011 µM and 0.0881 µM, respectively.
